These results are taken from PubChem BioAssay (NCI).

“And” between values parts separate entries of the source, which are not always exact repeats. Identical values can stand only once.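 Method: 48-hour compound exposure of cells in 96-well plates, five concentrations, linear interpolation of endpoints. GI50 is the concentration that inhibits growth by half. TGI is the concentration that stops growth completely.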

Holding throughout (experiment): NCI tumour cell line growth inhibition, 48 h
In assay [1] the test system is HL-60(TB) leukemia.
For assay [2], the system named is NCI-H460 lung.
The subject of assay [3] is HCT-15 colon.
The test system of assay [4] is MOLT-4 leukemia.
The subject of assay [5] is OVCAR-4 ovarian.
Assay [6] relates to BT-549 breast.
Assay [7] relates to M14 melanoma.
The subject of assay [8] is LOX IMVI melanoma.
In assay [9] the test system is SK-MEL-5 melanoma.
The test system of assay [10] is NCI-H522 lung.

Regarding `Fc1cccc(CSc2ncnc3c2ncn3C2CCCS2)c1` (centres undefined), the TGI was 32.1 µM in assay [1]; 22.7 µM in assay [2]; greater than 100 µM in assay [3]; 24 µM in assay [4]; 83.1 µM in assay [5]; 79.5 µM in assay [6]. Moreover, the TGI in assay [7] came to 33.7 µM; in assay [8], 34.9 µM; in assay [9], 22.5 µM; in [10] it was 44 µM.
Consider `Cc1ccc(C(=O)/C(=C\c2ccc([N+](=O)[O-])cc2)S(=O)Cc2ccc(F)cc2)cc1` (centres undefined), for which the GI50 is 1.67 µM in assay [1]; 1.89 µM in assay [2]; 1.45 µM in assay [3]; 1.3 µM in [4]; 1.73 µM in [5]; 1.52 µM in assay [6]. For the same compound, the GI50 was 1.44 µM in [7], 1.46 µM in [8], 1.76 µM in [9] and 1.55 µM in [10]. Also, the TGI is 5.02 µM in [1]; 3.85 µM in assay [2]; 3.5 µM in assay [3]; 5.58 µM in assay [4]; 3.54 µM in [5]; 2.88 µM in assay [6]. For the same compound, the TGI in assay [7] was 2.89 µM; in [8], 2.95 µM; in assay [9], 3.32 µM; in assay [10], 3.01 µM.
As for `Cc1cc([N+](=O)[O-])ccc1NS(=O)(=O)c1cc(Cl)ccc1Cl`, the GI50 in assay [1] is 3.13 µM; in assay [2], 2.97 µM; in assay [3], 2.92 µM; in assay [4], 4.03 µM; in assay [5], 2.42 µM; in assay [6] it was 2.48 µM. Besides, the GI50 in [7] is 3.66 µM; in assay [8] it was 3.44 µM; in [9], 1.54 µM; in assay [10] it was 2.44 µM. Besides, the TGI in [1] was 12.8 µM; in assay [2] it was greater than 43.6 µM; in assay [3], 13.1 µM; in [4], 20.1 µM; in assay [5], greater than 30.8 µM; in assay [6] it was 14 µM. In addition, the TGI in assay [7] amounted to 33.4 µM; in [8], 13 µM; in assay [9], 3.83 µM; in [10], 8.68 µM.
As for `CC(=O)OC1CC[C@@]2(C)C(CC[C@]3(C)C2CC=C2[C@@H]4CC(C)(C)CCC4(C)CCC23C)[C@@]1(C)C(=O)O` (some centres undefined), the TGI worked out at 83.5 µM in [1]; 37 µM in assay [2]; 28.5 µM in [3]; 47.3 µM in [4]; 40.2 µM in assay [5]; 50.1 µM in [6]. Further, the TGI amounted to 46.5 µM in [7], 50.1 µM in assay [8], 47.9 µM in assay [9] and 22.6 µM in assay [10].
For the compound `COc1ccc2nc(NCN3C(=O)c4ccccc4C3=O)sc2c1`, the TGI in assay [1], in [2], in [3], in assay [4], in [5] and in assay [6] was greater than 100 µM throughout. Also, the TGI in assay [7], in assay [8], in assay [9] and in assay [10] was greater than 100 µM each time.
As for `CSc1n(Cc2ccc3ccccc3c2)c(C)c[n+]1Cc1ccc2ccccc2c1`, the GI50 was 0.319 µM in assay [1]; 0.802 µM in assay [2]; 2.12 µM in assay [3]; 1.11 µM in assay [4]; 0.289 µM in assay [5]; 0.569 µM in assay [6]. In addition, the GI50 in assay [7] was 0.608 µM; in assay [8], 0.591 µM; in assay [9], 0.389 µM; in assay [10], 0.311 µM. Moreover, the TGI was 1.12 µM in assay [1]; 2.18 µM in assay [2]; 4.75 µM in assay [3]; 3.01 µM in [4]; 1.04 µM in assay [5]; 1.81 µM in [6]. Further, the TGI in assay [7] came out at 2.08 µM; in assay [8], 1.9 µM; in [9] it was 1.32 µM; in [10], 1.3 µM.
In the case of `Clc1ccc(C(c2ccc(Cl)cc2)N2CCNCC2)cc1`, the TGI is 4.57 µM in assay [1]; 4.65 µM in [2]; 8.79 µM in [3]; 5 µM in assay [4]; 6.95 µM in assay [5]; 38.3 µM in assay [6]. The TGI in assay [7] was determined as 3.39 µM; in assay [8], 4.53 µM; in [9], 3.64 µM; in [10], 3.46 µM.
On to `OC(C1CO1)C(O)C1CO1` (centres undefined), for which the GI50 in assay [1] was 2.33 µM; in assay [2], 2.14 µM; in assay [4], 1.95 µM; in [5], 134 µM; in assay [6], 29.5 µM; in assay [7], 28.7 µM. Also, the results for the GI50 in [8], in assay [9] and in [10] were 12 µM, 43.9 µM and 11.3 µM, respectively. Moreover, the TGI in [1] is 65.2 µM and 49.5 µM; in assay [2] it was 53.5 µM and 140 µM; in assay [3], 131 µM and 406 µM; in assay [4], 103 µM and 239 µM; in assay [5], 150 µM and 299 µM; in assay [6] it was 84.7 µM and 299 µM. Besides, the TGI in assay [7] is 94.6 µM and 165 µM; in assay [8] it was 78.3 µM and 233 µM; in [9], 85.6 µM and 164 µM; in assay [10] it was 94.8 µM and 175 µM.
For the compound `Clc1cccc(N2CCN(CCN3CCc4c([nH]c5ccccc45)C3c3cccnc3)CC2)c1` (centres undefined), the TGI in assay [1], in assay [2], in [3], in assay [4], in assay [5] and in [6] was greater than 100 µM throughout. Further, the TGI in assay [7] is greater than 100 µM; in assay [8], greater than 93.1 µM; in assay [9], greater than 100 µM; in assay [10], greater than 100 µM.
